This note sets out measurements from article PMC8151276, “An Integrated Approach toward NanoBRET Tracers for Analysis of GPCR Ligand Engagement” (Molecules, 2021).

The assay addresses T1, P2RY8 (Homo sapiens, UniProt Q86VZ1).
T1 construct: purchased Promega (in-house HiBiT-GPCR construct library, NanoBRET)
The assay can be described thus: NanoBRET screen HiBiT-P2RY8 in HEK293. Type of assay: binding. On the procedure: Each tracer candidate was screened across the entire library of HiBiT-GPCR constructs using NanoBRET as the detection modality. As depicted in Figure 4A, the specificity of interactions was evaluated through decrease in BRET due to competitive displacement of a bound tracer by excess parental compound. Each tracer was analyzed for binding to each HiBiT-GPCR fusion in the absence and in the presence of competing parental compound. Briefly, HEK293 cells were transfected with HiBiT-GPCR constructs diluted into promoterless DNA to reduce expression and maximize translocation to the cell surface. Each tracer candidate was then screened at concentrations of 1 μM and 0.1 μM across cells expressing these fusions. Cells were treated for 1.5 h with tracer either alone or in the presence of 20 μM competing parental compound (i.e., control). BRET was measured upon addition of purified LgBiT and subsequent complementation with HiBiT genetically fused to a GPCR. The specificity of interactions was assessed through a decrease in BRET signal due to competitive displacement of the bound tracer. To further gauge the robustness of these interactions, the fold response over the control (i.e., BRETtracer/BRETcontrol) was calculated. We chose a 1.5-fold response, which translates to ≥7-fold signal over noise as the minimal threshold required to score an interaction as positive.
HiBiT-GPCR DNA constructs were diluted in 10 mM Tris pH 8 to a final concentration of 0.01 μg/μL, arrayed in 96-well plates and stored at −20 °C. For transfection, HEK293 cells were suspended in Opti-MEM (without phenol red) supplemented with 2% fetal bovine serum (Seradigm) and 100 units/mL penicillin–streptomycin (Gibco) at a final concentration of 220,000 cells/mL and dispensed into white 96-well plates at 90 μL/well. Subsequent transfections and screens were carried using an Agilent Bravo Automated Liquid Handling Platform. First, the 96-well HiBiT DNA arrays were diluted 25-fold in Opti-MEM (without serum or phenol red) to a final concentration of 0.0004 μg/μL and 20 μL of the diluted DNAs were transferred into new 96-well plates. Next, promoterless carrier DNA (1 μg/μL) was diluted 25-fold (0.04 μg/μL) and then dispensed into the diluted arrays at 20 μL/well. Following brief mixing, Viafect transfection reagent (Promega) diluted 16-fold into Opti-MEM was dispensed into the plates at 40 μL/well. After mixing by pipetting, plates were incubated for 10 min on the pipetting station deck. The DNA-transfection reagent complexes were then added to plates containing cells. To facilitate the screen, 10 μL of DNA-transfection reagent complexes were added in duplicates to the top 4 and bottom 4 rows, resulting in two identical 48-well arrays per plate. Plates with transfected cells were incubated for 18–20 h at 37 °C/5% CO2. A screen of each tracer across the entire library using two different concentrations requires duplicate plates of transfected cells. Depending on the number of tracers being screened, transfections can be scaled up using the same ratios. The next day, for each tracer, four 20× screening solutions in tracer dilution buffer (Promega) were prepared: two duplicates at final concentration of 20 μM and two duplicates at a final concentration of 2 μM. […] The four resulting solutions were diluted 4-fold in Opti-MEM without serum or phenol red to generate 5× solutions (5 µM and 0.5 µM tracer +/− 100 μM competing compound). To screen the library, a BioTek MultiFlo FX liquid dispenser was used to dispense 22.5 µL of tracer solution to the top 4 rows and 22.5 µL tracer + competing compound solution to the 4 bottom rows. Plates were briefly mixed on an orbital shaker and incubated for 1.5 h at room temperature. […] Plates were briefly mixed on an orbital shaker and incubated for 15 min to allow complementation.
Background: Bioluminescence resonance energy transfer reports proximity on the nanometre scale.

T1 sequence (Q86VZ1 whole entry): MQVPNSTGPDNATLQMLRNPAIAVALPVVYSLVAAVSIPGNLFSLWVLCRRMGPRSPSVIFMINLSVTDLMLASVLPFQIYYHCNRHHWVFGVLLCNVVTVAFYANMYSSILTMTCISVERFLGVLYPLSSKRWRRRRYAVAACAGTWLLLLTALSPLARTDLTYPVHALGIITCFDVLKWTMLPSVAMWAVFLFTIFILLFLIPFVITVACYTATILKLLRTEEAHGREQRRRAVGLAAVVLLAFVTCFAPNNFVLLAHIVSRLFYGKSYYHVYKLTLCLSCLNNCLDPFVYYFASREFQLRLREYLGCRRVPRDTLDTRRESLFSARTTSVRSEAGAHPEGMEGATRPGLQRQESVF

Consider `O=C(CCc1ccc2n1[B-](F)(F)[N+]1=C(c3ccc[nH]3)C=CC1=C2)NCc1ccc(C(=O)NCCOCCC(=O)N[C@@H]2CC[C@@]3(O)[C@H]4Cc5ccc(O)c6c5[C@@]3(CCN4CC3CC3)[C@H]2O6)cc1` [Naltrexone-3-NB590], for which the “NanoBRET Fold Response” value by setting is: (P2RY8, tracer 0.1μM) 0.86; (P2RY8, tracer 1μM) 0.47.

Take `CN1CCN(C2=Nc3cc(Cl)ccc3N(CC(=O)NCCOCCOCCOCCOCCNC(=O)CCc3ccc4n3[B-](F)(F)[N+]3=C(c5ccc[nH]5)C=CC3=C4)c3ccccc32)CC1` [Clozapine-c-2-NB590]: the “NanoBRET Fold Response” value is 1.05 (P2RY8, 0.1μM tracer) and 0.79 (P2RY8, 1μM tracer).

Regarding `O=C(CCOCCOCCOCCOCCNC(=O)CCc1ccc2n1[B-](F)(F)[N+]1=C(c3ccc[nH]3)C=CC1=C2)NCCCN1CCN(C2=Nc3cc(Cl)ccc3Nc3ccccc32)CC1` [Clozapine-a-2-NB590], the “NanoBRET Fold Response” value (P2RY8, 0.1μM tracer) stood at 0.97 and the “NanoBRET Fold Response” value (P2RY8, 1μM tracer) stood at 0.96.

With `CCOC(=O)c1cc(C#N)c(N2CCC(C(=O)NS(=O)(=O)Cc3ccccc3/C=C/C(=O)NCCNC(=O)CCc3ccc4n3[B-](F)(F)[N+]3=C(c5ccc[nH]5)C=CC3=C4)CC2)nc1C` [AZD1283-1-NB590], the “NanoBRET Fold Response” value is, setting by setting: (P2RY8, 0.1μM) 1.56; (P2RY8, 1μM) 1.89.

With `COc1ccc2[nH]c(-c3ccc(CNC(=O)CCOCCOCCOCCOCCNC(=O)CCc4ccc5n4[B-](F)(F)[N+]4=C(c6ccc[nH]6)C=CC4=C5)cc3)c(CCNC(C)=O)c2n1` [AzomelatoninICO9-2-NB590], the “NanoBRET Fold Response” value was 1.14 (0.1μM tracer) and 1.05 (1μM tracer).

As to `CCCn1c(=O)c2[nH]c(-c3ccc(OCC(=O)NCCNC(=O)CCOCCNC(=O)c4ccc(CNC(=O)CCc5ccc6n5[B-](F)(F)[N+]5=C(c7ccc[nH]7)C=CC5=C6)cc4)cc3)nc2n(CCC)c1=O` [XAC-3-NB590], the “NanoBRET Fold Response” value was found to be 1.30 (P2RY8, tracer 0.1μM) and 0.83 (P2RY8, tracer 1μM).

Regarding `COc1ccccc1N1CCN(CCCCN2C(=O)c3ccc(CNC(=O)CCOCCNC(=O)c4ccc(CNC(=O)CCc5ccc6n5[B-](F)(F)[N+]5=C(c7ccc[nH]7)C=CC5=C6)cc4)cc3C2=O)CC1` [NAN-190-3-NB590], the “NanoBRET Fold Response” value is, setting by setting: (P2RY8, tracer 0.1μM) 1.21; (P2RY8, tracer 1μM) 1.12.

For the molecule `CN(CCC=C1c2ccccc2CCc2ccccc21)C(=O)CCOCCOCCOCCOCCNC(=O)CCc1ccc2n1[B-](F)(F)[N+]1=C(c3ccc[nH]3)C=CC1=C2` [Amitriptyline-e-2-NB590], where the note is “tracer at 1μM”, the “NanoBRET Fold Response” value worked out at 0.99.

As to `O=C(CCc1ccc2n1[B-](F)(F)[N+]1=C(c3ccc[nH]3)C=CC1=C2)NCc1ccc(C(=O)NCCOCCOCCNCC(O)COc2cccc3ccccc23)cc1` (stereo not shown) [Propranolol-3-NB590], the “NanoBRET Fold Response” value (P2RY8, 0.1μM) came to 1.11 and the “NanoBRET Fold Response” value (P2RY8, 1μM) was determined as 1.00.

Consider `COc1ccc2c(n1)c(CCNC(C)=O)cn2CCNC(=O)CCc1ccc2n1[B-](F)(F)[N+]1=C(c3ccc[nH]3)C=CC1=C2` [Azamelatonin-1-NB590], for which the “NanoBRET Fold Response” value is listed as 1.30 (0.1μM tracer) and 1.30 (1μM tracer).

As for `O=C(CCOCCOCCOCCOCCNC(=O)CCc1ccc2n1[B-](F)(F)[N+]1=C(c3ccc[nH]3)C=CC1=C2)NCCCN1CCN(C2=Nc3ccccc3Oc3ccc(Cl)cc32)CC1` [Loxapine-a-2-NB590], the “NanoBRET Fold Response” value reads like this: (P2RY8, tracer 0.1μM) 0.95; (P2RY8, tracer 1μM) 0.87.

Regarding `COc1ccccc1N1CCN(CCCCN2C(=O)c3ccc(CNC(=O)CCOCCOCCOCCOCCNC(=O)CCc4ccc5n4[B-](F)(F)[N+]4=C(c6ccc[nH]6)C=CC4=C5)cc3C2=O)CC1` [NAN-190-2-NB590], the “NanoBRET Fold Response” value turned out to be 0.99 (P2RY8, tracer 0.1μM) and 1.14 (P2RY8, tracer 1μM).

With `CC(C)N(CC[C@H](c1ccccc1)c1cc(CCNC(=O)c2ccc(CNC(=O)CCc3ccc4n3[B-](F)(F)[N+]3=C(c5ccc[nH]5)C=CC3=C4)cc2)ccc1O)C(C)C` [Tolterodine-BZ-NB590], the “NanoBRET Fold Response” value (P2RY8, tracer 0.1μM) was determined as 0.96 and the “NanoBRET Fold Response” value (P2RY8, tracer 1μM) amounted to 1.01.

Take `O=C(CCc1ccc2n1[B-](F)(F)[N+]1=C(c3ccc[nH]3)C=CC1=C2)NCCOCCOCCNC(=O)OCCOCCN1CCN(C2=Nc3ccccc3Sc3ccccc32)CC1` [Quetiapine-a-2-NB590]: the “NanoBRET Fold Response” value by setting is: (P2RY8, tracer 0.1μM) 0.94; (P2RY8, tracer 1μM) 0.88.

For the molecule `CN1CCN(C2=Nc3cc(Cl)ccc3Nc3ccc(CNC(=O)CCOCCOCCOCCOCCNC(=O)CCc4ccc5n4[B-](F)(F)[N+]4=C(c6ccc[nH]6)C=CC4=C5)cc32)CC1` [Clozapine-b-2-NB590], the “NanoBRET Fold Response” value reads like this: (P2RY8, 0.1μM tracer) 0.97; (P2RY8, 1μM tracer) 0.93.

As to `CC(C)N(CC[C@H](c1ccccc1)c1cc(CCNC(=O)CCOCCOCCOCCOCCNC(=O)CCc2ccc3n2[B-](F)(F)[N+]2=C(c4ccc[nH]4)C=CC2=C3)ccc1O)C(C)C` [Tolterodine-2-NB590], the “NanoBRET Fold Response” value runs as follows: (P2RY8, tracer 0.1μM) 1.06; (P2RY8, tracer 1μM) 1.22.

As for `CN(C)CCC=C1c2ccccc2CCc2ccc(C(=O)NCCNC(=O)CCOCCOCCOCCOCCNC(=O)CCc3ccc4n3[B-](F)(F)[N+]3=C(c5ccc[nH]5)C=CC3=C4)cc21` [Amitriptyline-a-2-NB590], the “NanoBRET Fold Response” value reads like this: (tracer at 0.1μM) 1.05; (tracer at 1μM) 0.90.

As to `Cc1cc2c(s1)Nc1ccccc1N=C2N1CCN(CCCNC(=O)CCOCCOCCOCCOCCNC(=O)CCc2ccc3n2[B-](F)(F)[N+]2=C(c4ccc[nH]4)C=CC2=C3)CC1` [Olanzapine-a-2-NB590], where the note is “P2RY8, tracer 1μM”, the “NanoBRET Fold Response” value came to 1.13.

Turning to `N#CN=C(NCCCOc1cccc(CN2CCCCC2)c1)NCCNC(=O)CCOCCOCCOCCOCCNC(=O)CCc1ccc2n1[B-](F)(F)[N+]1=C(c3ccc[nH]3)C=CC1=C2` [Aminopotentidine-2-NB590], the “NanoBRET Fold Response” value stood at 1.06 (P2RY8, tracer 0.1μM) and 1.02 (P2RY8, tracer 1μM).

Regarding `Cc1nc2n(c(=O)c1CCN1CCC(c3noc4cc(F)ccc34)CC1)CCCC2OC(=O)NCCOCCOCCOCCOCCNC(=O)CCc1ccc2n1[B-](F)(F)[N+]1=C(c3ccc[nH]3)C=CC1=C2` (stereo not shown) [Risperidone-2-NB590], the “NanoBRET Fold Response” value stood at 1.06 (P2RY8, tracer 0.1μM) and 0.96 (P2RY8, tracer 1μM).

Take `CN(C)CCC=C1c2ccccc2CCc2ccc(C(=O)NCCNC(=O)CCOCCOCCOCCOCCNC(=O)CCc3ccc4n3[B-](F)(F)[N+]3=C(c5ccc[nH]5)C=CC3=C4)cc21` [Amitriptyline-b-2-NB590]: the “NanoBRET Fold Response” value is, setting by setting: (tracer at 0.1μM, listed as amitriptyline-b-2-NB590) 0.88; (tracer at 1μM, listed as amitriptyline-b-2-NB590) 1.07.
